The source of these data is patent publication US20250368952A1, “Methods for Culturing Organoids” (Cellesce Limited, priority 2016, published 2025).

“Also recorded” adds a separate entry of the source.

In the assay the test system is ISO50 (Isolation number 50) colorectal cancer organoids. The assay is described as follows: Drug titration assay on colorectal cancer organoids cultured in a fed-plate bioreactor (confocal imaging, morphometric analysis). Type of assay: cell-based. To be noted: 5 days. Here is the method:
ISO50 (Isolation number 50) colorectal cancer organoids were cultured in a fed-plate bioreactor for 3 days, recovered from the MATRIGEL™ and stored frozen at −80° C. They were subsequently revived and used to seed a 384-well plate at a density of 350 organoids per well in 12 μl MATRIGEL™. The organoids were fed with 25 μl growth medium containing 0-2.5 μM MK1775, a WEE1 inhibitor (8 replicates). After 5 days, the organoids were fixed and stained with Hoechst (blue fluorescent stain specific for DNA i.e. nuclei of eukaryotic cells) and phalloidin (pink stain for F-actin). […] The actin filaments are spread throughout the structures, but are more concentrated in the lumen, in the centre of the organoid. Representative organoids are pictured from selected wells at each concentration. The overall shape of organoids in an untreated culture, or at low concentrations of inhibitor, can vary from round and cyst-like to convoluted and branched. […] Morphometric analysis of over 1000 parameters of the organoids confirmed the observations of toxicity.

For `C=CCn1c(=O)c2cnc(Nc3ccc(N4CCN(C)CC4)cc3)nc2n1-c1cccc(C(C)(C)O)n1` [MK1775], the “Organoid morphology (confocal imaging, Hoechst and phalloidin staining)” value (0-2.5 μM in growth medium, 384-well plate, 350 organoids per well, 8 replicates, FIG. 3A) was “cells are shed from the outer layer of the organoid, leading to a loss in complexity and a decrease in the overall size; also recorded: cells are shed from the outer layer of the organoid, leading to a loss of complexity and a decrease in the overall size”. For the setting “0-2.5 μM, FIG. 3B”, the “Apoptotic nuclei (morphometric analysis)” value is on record as “increase with drug concentration”, the “Nuclei roundness (due to swelling before apoptosis; morphometric analysis)” value is “increase with drug concentration” and the “Organoid size (morphometric analysis)” value is recorded as “decreases with increasing concentrations of inhibitor”.
